For this experiment, the system named is zinnia (Zinnia peruviana var. “Giant Dahlia”) seedlings. The experiment in a line: Herbicidal effect (percent control) on zinnia seedlings. The format is in vivo. The following applies: Enz 0 mg, 2 mL dose. Here is the method: In one example, combinations of cellulase and hemicellulase from Trichoderma viride (i.e. depolymerase, labeled “Enz” in Table 1), bovine serum albumin (i.e. non-depolymerase protein, labeled “BSA” in Table 1), and glyphosate (labeled “Gly” in Table 1) are blended and applied in 2 mL doses directly to zinnia (Zinnia peruviana var. “Giant Dahlia”) seedlings at the first true leaf stage. Treatments ranged from 0-1.6 mg of depolymerase that consisted of cellulase from Trichoderma viride and hemicellulase from Aspergillus niger in a ratio of 10.5:6, respectively; non-depolymerase BSA from 0-24 mg; and glyphosate from 0-0.3 mg. […] Herbicidal effect was assessed 12 days after treatment (DAT). Percent control ratings ascertained the extent of control, i.e. reduction in growth, and were scored on a basis of 0 to 100 where 100 represents complete killing of the plants and 0 represents no reduction in growth as compared to the untreated control.

For `O=C(O)CNCP(=O)(O)O` [Gly, glyphosate], the “Percent Control 12 DAT” value turned out to be 0% (Gly 0.003 mg, BSA 0 mg); 28% (Gly 0.03 mg, BSA 0 mg); 28% (Gly 0.3 mg, BSA 0 mg).

With bovine serum albumin [BSA], the “Percent Control 12 DAT” value by setting is: (Gly 0 mg, BSA 0.24 mg) 3%; (Gly 0 mg, BSA 2.4 mg) 7%; (Gly 0 mg, BSA 24 mg) 13%.

Values taken from patent US20160353747A1, “COMPOSITIONS AND METHODS FOR ACHIEVING A BIOLOGICAL EFFECT IN TARGET VEGETATION” (Ento Bio LLC, priority 2015, published 2016).
